Target: Small conductance calcium-activated potassium channel (Rattus norvegicus, UniProt P70604+P70606+P70605)
Experiment: Inhibition of after hyperpolarization (AHP) of cultured rat sympathetic neurons as SKCa channel blocking activity
Format: functional, cell-based
Details: sympathetic neuron

SMILES | IC50
c1ccc2c(c1)c1cc[n+]2CCCCC[n+]2ccc(c3ccccc32)NCCCCN1 | 9 nM
c1ccc2c(c1)c1cc[n+]2CCCCCC[n+]2ccc(c3ccccc32)NCc2ccc(cc2)CN1 | 65 nM
c1cc2cc(c1)C[n+]1ccc(c3ccccc31)NCCCCCNc1cc[n+](c3ccccc13)C2 | 31 nM
c1ccc2c(c1)c1cc[n+]2CCCC[n+]2ccc(c3ccccc32)NCCCCN1 | 40 nM
c1ccc2c(c1)c1cc[n+]2CCCCCCCCCC[n+]2ccc(c3ccccc32)NCCCCCCCCCCN1 | 260 nM
Cc1cc(N)c2ccccc2[n+]1CCCCCCCCCC[n+]1c(C)cc(N)c2ccccc21.[Cl-].[Cl-] [DEQUALINIUM CHLORIDE] | 900 nM
c1ccc2c(c1)c1cc[n+]2CCCCC[n+]2ccc(c3ccccc32)NCCCN1 | 30 nM
c1cc2cc(c1)C[n+]1ccc(c3ccccc31)NCCCNc1cc[n+](c3ccccc13)C2 | 25 nM
[I-].[I-].c1ccc2c(c1)c1cc[n+]2CCCCC[n+]2ccc(c3ccccc32)NCCCCCN1 | 2 nM

Now from value to compound:

IC50 | SMILES
15 nM | c1ccc2c(c1)c1cc[n+]2CCCC[n+]2ccc(c3ccccc32)NCCCCCN1
16 nM | c1ccc2c(c1)c1cc[n+]2CCCCCC[n+]2ccc(c3ccccc32)NCCCCCN1
60 nM | c1ccc2c(c1)c1cc[n+]2CCCCC[n+]2ccc(c3ccccc32)NCc2ccc(cc2)CN1
60 nM | c1ccc2c(c1)c1cc[n+]2CCCCCC[n+]2ccc(c3ccccc32)NCCCCCCN1
380 nM | c1ccc2c(c1)c1cc[n+]2CCC[n+]2ccc(c3ccccc32)NCCCN1 (stereo in doubt; 2m)
150 nM | c1ccc2c(c1)c1cc[n+]2CCC[n+]2ccc(c3ccccc32)NCc2ccc(cc2)CN1
630 nM | c1ccc2c(c1)c1cc[n+]2CCC[n+]2ccc(c3ccccc32)NCCCN1 (stereo in doubt; 2l)
35 nM | c1cc2cc(c1)C[n+]1ccc(c3ccccc31)NCCCCCCNc1cc[n+](c3ccccc13)C2
190 nM | [I-].[I-].c1ccc2c(c1)c1cc[n+]2CCCCCCCC[n+]2ccc(c3ccccc32)NCCCCCCCCN1
12 nM | c1ccc2c(c1)c1cc[n+]2CCCCC[n+]2ccc(c3ccccc32)NCCCCCCN1

— ChEMBL document CHEMBL1138822, “Bis-quinolinium cyclophanes: toward a pharmacophore model for the blockade of apamin-sensitive SKCa channels in sympathetic neurons” (Bioorg Med Chem Lett, 2004)
